Here are results for 29 molecules from patent US20110195949A1, “2-BENZOTHIOPHENYL- AND 2-NAPHTHYL-OXAZOLIDINONES AND THEIR AZAISOSTERE ANALOGUES AS ANTIBACTERIAL AGENTS” (ACTELION PHARMACEUTICALS LTD., priority 2008, published 2011).

≈ marks a conversion by molar mass, not a printed value. A value given as a limit tells only on which side of the number the result lay.

What is called MIC is the smallest concentration in the dilution series that meets the test's criterion for growth inhibition.

The subject of this test is M. catarrhalis A894. Kind of test: Minimal inhibitory concentration (MIC), microdilution method in cation-adjusted Mueller-Hinton Broth (CLSI M7-A7). The class given is cell-based. Particulars: Moraxella catarrhalis, strain A894. On the procedure: Minimal inhibitory concentrations (MICs; mg/L) were determined in cation-adjusted Mueller-Hinton Broth by a microdilution method following the description given in “Methods for Dilution Antimicrobial Susceptibility Tests for Bacteria that Grow Aerobically”, Approved standard, 7th ed., Clinical and Laboratory Standards Institute (CLSI) Document M7-A7, Wayne, Pa., USA, 2006. All Example compounds were tested against several Gram positive and Gram negative bacteria such as S. aureus, E. faecalis, S. pneumoniae, M. catarrhalis, A. baumanii, E. coli or P. aeruginosa.
In general terms: In broth dilution the organism is exposed to a series of concentrations in liquid medium.
In turn, `O=C1CSc2ccc(N3C[C@@H](CNCCc4ccc5ccccc5n4)OC3=O)cc2N1` [Example 24, 6-{(R)-2-oxo-5-[(2-quinolin-2-yl-ethylamino)-methyl]-oxazolidin-3-yl}-4H-benzo[1,4]thiazin-3-one] showed an MIC of 0.031 µg/mL (≈ 0.0713 µM).

The molecule `O=C1CSc2ccc(N3CC(CCCNCc4ccc5ccccc5c4)OC3=O)cc2N1` (racemic) [Example 12, rac-6-(5-{3-[(naphthalen-2-ylmethyl)-amino]-propyl}-2-oxo-oxazolidin-3-yl)-4H-benzo[1,4]thiazin-3-one] returned an MIC of 1 µg/mL (≈ 2.23 µM).

In the case of `O=C1COc2ccc(N3C[C@@H](CCCNCc4ccc5ccccc5n4)OC3=O)cc2N1` [Example 4, 6-((R)-2-oxo-5-{3-[(quinolin-2-ylmethyl)-amino]-propyl}-oxazolidin-3-yl)-4H-benzo[1,4]oxazin-3-one], the MIC stood at 0.063 µg/mL (≈ 0.146 µM). This MIC lies about 16-fold lower than the previous one.

Turning to `COc1ccc2ncc(OCC3CN(CC[C@@H]4CN(c5ccc6c(c5)NC(=O)CS6)C(=O)O4)C3)nc2c1` [Example 20, 6-((R)-5-{2-[3-(7-methoxy-quinoxalin-2-yloxymethyl)-azetidin-1-yl]-ethyl}-2-oxo-oxazolidin-3-yl)-4H-benzo[1,4]thiazin-3-one], the MIC is at most 0.031 µg/mL.

Consider `O=C1CSc2ccc(N3C[C@H](CNCCCc4ccc5ccccc5n4)OC3=O)cc2N1` [Example 5, 6-{(S)-2-oxo-5-[(3-quinolin-2-yl-propylamino)-methyl]-oxazolidin-3-yl}-4H-benzo[1,4]thiazin-3-one], for which the MIC is at most 0.031 µg/mL.

On to `COc1ccc2ncc(OCC3CN(C[C@@H]4CN(c5ccc6c(c5)NC(=O)CO6)C(=O)O4)C3)nc2c1` [Example 22, 6-{(R)-5-[3-(7-methoxy-quinoxalin-2-yloxymethyl)-azetidin-1-ylmethyl]-2-oxo-oxazolidin-3-yl}-4H-benzo[1,4]oxazin-3-one], for which the MIC was at most 0.031 µg/mL.

`O=C1CSc2ccc(N3CC(CCCNCc4cnc5ccccc5c4)OC3=O)cc2N1` (racemic) [Example 11, rac-6-(2-oxo-5-{3-[(quinolin-3-ylmethyl)-amino]-propyl}-oxazolidin-3-yl)-4H-benzo[1,4]thiazin-3-one] returned an MIC of 4 µg/mL (≈ 8.92 µM).

`O=C1CSc2ccc(N3C[C@@H](CCNCc4ccc5ccccc5n4)OC3=O)cc2N1` [Example 15, 6-((R)-2-oxo-5-{2-[(quinolin-2-ylmethyl)-amino]-ethyl}-oxazolidin-3-yl)-4H-benzo[1,4]thiazin-3-one]: the MIC is at most 0.031 µg/mL.

Consider `O=C1CSc2ccc(N3CC(CCCNCc4cc5cccnc5s4)OC3=O)cc2N1` (racemic) [Example 9, rac-6-(2-oxo-5-{3-[(thieno[2,3-b]pyridin-2-ylmethyl)-amino]-propyl}-oxazolidin-3-yl)-4H-benzo[1,4]thiazin-3-one], for which the minimum inhibitory concentration (MIC) is 0.125 µg/mL (≈ 0.275 µM).

`O=C1CSc2ccc(N3CC(CCCNCc4ccc5c(F)cccc5n4)OC3=O)cc2N1` (racemic) [Example 7, rac-6-(5-{3-[(5-fluoro-quinolin-2-ylmethyl)-amino]-propyl}-2-oxo-oxazolidin-3-yl)-4H-benzo[1,4]thiazin-3-one] displayed an MIC of 0.063 µg/mL (≈ 0.135 µM). Against the preceding molecule, the MIC is about 2-fold lower.

Consider `O=C1COc2ccc(N3C[C@@H](CCNCCNc4ccc5ccccc5n4)OC3=O)cc2N1` [Example 26, 6-((R)-2-oxo-5-{2-[2-(quinolin-2-ylamino)-ethylamino]-ethyl}-oxazolidin-3-yl)-4H-benzo[1,4]oxazin-3-one], for which 0.25 µg/mL (≈ 0.559 µM) was the least that counted as inhibitory (MIC).

In the case of `O=C1CSc2ccc(N3C[C@@H](CCNCCc4ccc5ccccc5n4)OC3=O)cc2N1` [Example 16, 6-{(R)-2-oxo-5-[2-(2-quinolin-2-yl-ethylamino)-ethyl]-oxazolidin-3-yl}-4H-benzo[1,4]thiazin-3-one], the MIC was at most 0.031 µg/mL.

`O=C1COc2ccc(N3C[C@@H](CCCNCc4ccc5ccc(F)cc5n4)OC3=O)cc2N1` [Example 3, 6-((R)-5-{3-[(7-fluoro-quinolin-2-ylmethyl)-amino]-propyl}-2-oxo-oxazolidin-3-yl)-4H-benzo[1,4]oxazin-3-one] showed an MIC of at most 0.031 µg/mL.

`COc1ccc2ccc(OCC3CCN(C[C@@H]4CN(c5ccc6c(c5)NC(=O)CS6)C(=O)O4)CC3)nc2c1` [Example 18, 6-{(R)-5-[4-(7-methoxy-quinolin-2-yloxymethyl)-piperidin-1-ylmethyl]-2-oxo-oxazolidin-3-yl}-4H-benzo[1,4]thiazin-3-one]: inhibition of growth (MIC) required 0.5 µg/mL (≈ 0.935 µM).

`COc1cnc2cc(CNCCC[C@H]3CN(c4ccc5c(c4)NC(=O)CS5)C(=O)O3)c(F)cc2n1` [Example 29, 6-((S)-5-{3-[(7-fluoro-2-methoxy-quinoxalin-6-ylmethyl)-amino]-propyl}-2-oxo-oxazolidin-3-yl)-4H-benzo[1,4]thiazin-3-one] registered an MIC of at most 0.031 µg/mL.

Molecule `COc1ccc2ncc(OCC3CN(C[C@@H]4CN(c5ccc6c(c5)NC(=O)CS6)C(=O)O4)C3)nc2c1` [Example 21, 6-{(R)-5-[3-(7-methoxy-quinoxalin-2-yloxymethyl)-azetidin-1-ylmethyl]-2-oxo-oxazolidin-3-yl}-4H-benzo[1,4]thiazin-3-one] showed an MIC of at most 0.031 µg/mL.

The molecule `COc1ccc2ccc(OC[C@@H]3CCN(C[C@@H]4CN(c5ccc6c(c5)NC(=O)CS6)C(=O)O4)C3)nc2c1` [Example 17, 6-{(R)-5-[(R)-3-(7-methoxy-quinolin-2-yloxymethyl)-pyrrolidin-1-ylmethyl]-2-oxo-oxazolidin-3-yl}-4H-benzo[1,4]thiazin-3-one] gave a minimum inhibitory concentration (MIC) of at most 0.031 µg/mL.

The molecule `O=C1CSc2ccc(N3C[C@@H](CN4CCN(Cc5ccc6ccccc6n5)CC4)OC3=O)cc2N1` [Example 28, 6-[(R)-2-oxo-5-(4-quinolin-2-ylmethyl-piperazin-1-ylmethyl)-oxazolidin-3-yl]-4H-benzo[1,4]thiazin-3-one] registered an MIC of 0.063 µg/mL (≈ 0.129 µM).

`COc1ccc2ncc(OCC3CN(C[C@@H]4CN(c5ccc6c(c5)OCCO6)C(=O)O4)C3)nc2c1` [Example 19, (R)-3-(2,3-dihydro-benzo[1,4]dioxin-6-yl)-5-[3-(7-methoxy-quinoxalin-2-yloxymethyl)-azetidin-1-ylmethyl]-oxazolidin-2-one] came in with an MIC of 0.25 µg/mL (≈ 0.522 µM).

In the case of `COc1ccc2ccc(OC3CC(NC[C@@H]4CN(c5ccc6c(c5)NC(=O)CS6)C(=O)O4)C3)nc2c1` (stereo partly drawn) [Example 23, 6-((R)-5-{[3-(7-methoxy-quinolin-2-yloxy)-cyclobutylamino]-methyl}-2-oxo-oxazolidin-3-yl)-4H-benzo[1,4]thiazin-3-one], the MIC is at most 0.031 µg/mL.

As for `O=C1CSc2ccc(N3CC(CCCNCc4cc5nccnc5s4)OC3=O)cc2N1` (racemic) [Example 10, rac-6-(2-oxo-5-{3-[(thieno[2,3-b]pyrazin-6-ylmethyl)-amino]-propyl}-oxazolidin-3-yl)-4H-benzo[1,4]thiazin-3-one], the MIC came to 0.25 µg/mL (≈ 0.549 µM).

Molecule `O=C1CSc2ccc(N3CC(CCCNCc4ccc5ccccc5n4)OC3=O)cc2N1` (racemic) [Example 1, rac-6-(2-oxo-5-{3-[(quinolin-2-ylmethyl)-amino]-propyl}-oxazolidin-3-yl)-4H-benzo[1,4]thiazin-3-one] showed an MIC of 0.5 µg/mL (≈ 1.11 µM).

`O=C1CSc2ccc(N3CC(CCCNCc4ccc5ccc(F)cc5n4)OC3=O)cc2N1` (racemic) [Example 2, rac-6-(5-{3-[(7-fluoro-quinolin-2-ylmethyl)-amino]-propyl}-2-oxo-oxazolidin-3-yl)-4H-benzo[1,4]thiazin-3-one] had an MIC of 0.031 µg/mL (≈ 0.0664 µM).

For `O=C1CSc2ccc(N3C[C@@H](CNCCNCc4ccc5ccccc5n4)OC3=O)cc2N1` [Example 27, 6-[(R)-2-oxo-5-({2-[(quinolin-2-ylmethyl)-amino]-ethylamino}-methyl)-oxazolidin-3-yl]-4H-benzo[1,4]thiazin-3-one], the MIC came to 1 µg/mL (≈ 2.16 µM).

On to `Cc1c(CNCCCC2CN(c3ccc4c(c3)NC(=O)CS4)C(=O)O2)sc2ccccc12` (racemic) [Example 8, rac-6-(5-{3-[(3-methyl-benzo[b]thiophen-2-ylmethyl)-amino]-propyl}-2-oxo-oxazolidin-3-yl)-4H-benzo[1,4]thiazin-3-one], for which the MIC was found to be 0.063 µg/mL (≈ 0.135 µM).

`O=C1CSc2ccc(N3CC(CCCNCc4ccc5ncccc5c4)OC3=O)cc2N1` (racemic) [Example 14, rac-6-(2-oxo-5-{3-[(quinolin-6-ylmethyl)-amino]-propyl}-oxazolidin-3-yl)-4H-benzo[1,4]thiazin-3-one] gave an MIC of 1 µg/mL (≈ 2.23 µM).

Turning to `O=C1CSc2ccc(N3CC(CCCNCc4cc5ncccc5cc4F)OC3=O)cc2N1` (racemic) [Example 6, rac-6-(5-{3-[(6-fluoro-quinolin-7-ylmethyl)-amino]-propyl}-2-oxo-oxazolidin-3-yl)-4H-benzo[1,4]thiazin-3-one], the minimum inhibitory concentration (MIC) was at most 0.031 µg/mL.

In the case of `O=C1CSc2ccc(N3C[C@@H](CCCNCCc4ccc5ccccc5n4)OC3=O)cc2N1` [Example 25, 6-{(R)-2-oxo-5-[3-(2-quinolin-2-yl-ethylamino)-propyl]-oxazolidin-3-yl}-4H-benzo[1,4]thiazin-3-one], the MIC was 0.125 µg/mL (≈ 0.27 µM).

In the case of `O=C1CSc2ccc(N3CC(CCCNCc4ccc5cccnc5c4)OC3=O)cc2N1` (racemic) [Example 13, rac-6-(2-oxo-5-{3-[(quinolin-7-ylmethyl)-amino]-propyl}-oxazolidin-3-yl)-4H-benzo[1,4]thiazin-3-one], it took 0.5 µg/mL (≈ 1.11 µM) to inhibit growth (MIC). This MIC lies about 4-fold higher than the previous one.
